{"source": "patent US20230263786A1", "about": "“MODULATION OF DRUG-DRUG INTERACTIONS OF VADADUSTAT” (Akebia Therapeutics, Inc., priority 2020, published 2023)", "key": {"[1]": {"biological_target": "T1, UGT1A1 (Homo sapiens, UniProt P22309)", "T1 sequence (P22309 26-533)": "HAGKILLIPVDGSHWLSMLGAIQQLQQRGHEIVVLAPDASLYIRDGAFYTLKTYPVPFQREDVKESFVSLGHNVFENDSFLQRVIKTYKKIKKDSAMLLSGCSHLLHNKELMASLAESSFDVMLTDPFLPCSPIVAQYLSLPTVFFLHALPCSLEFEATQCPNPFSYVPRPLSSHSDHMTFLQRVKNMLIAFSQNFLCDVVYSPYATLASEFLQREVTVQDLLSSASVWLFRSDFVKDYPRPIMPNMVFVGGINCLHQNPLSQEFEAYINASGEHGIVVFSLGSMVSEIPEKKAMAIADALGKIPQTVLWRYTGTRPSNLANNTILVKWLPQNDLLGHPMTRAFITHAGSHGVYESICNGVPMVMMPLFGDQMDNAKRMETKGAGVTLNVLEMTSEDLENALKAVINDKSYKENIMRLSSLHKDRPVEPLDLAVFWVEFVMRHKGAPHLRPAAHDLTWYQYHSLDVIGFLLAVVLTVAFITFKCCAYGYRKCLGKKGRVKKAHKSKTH", "experiment": "UGT1A1 inhibition in vitro", "type": "in vitro ADME"}, "[2]": {"experiment": "clinical", "conditions": "male, human, plasma, oral, 450 mg", "quoted_text": "Pharmacokinetics. […] The ratio of metabolite to parent was calculated for each glucuronide metabolite for AUC(0-t); and AUC(0-inf) and Cmax.\nComparative Bioavailability. […] Factors incorporated in the model included: Sequence, Subject (Sequence), Period, and Treatment.\nTreatment of Subjects. […] All subjects are dosed on the same day for Day 1 of Confinement Period 1, and are crossed over to the alternate treatment and are dosed on the same day for Day 1 of Confinement Period 2. Both treatments are administered in a fasted state, and a four-day Washout Period separates each Confinement Period."}, "[3]": {"tested_on": "erythropoietin", "experiment": "Blood erythropoietin concentration increasing action", "type": "in vivo", "conditions": "normal rat, single oral administration"}, "[4]": {"biological_target": "CYP2C9 (Homo sapiens, UniProt P11712)", "sequence (P11712 whole entry)": "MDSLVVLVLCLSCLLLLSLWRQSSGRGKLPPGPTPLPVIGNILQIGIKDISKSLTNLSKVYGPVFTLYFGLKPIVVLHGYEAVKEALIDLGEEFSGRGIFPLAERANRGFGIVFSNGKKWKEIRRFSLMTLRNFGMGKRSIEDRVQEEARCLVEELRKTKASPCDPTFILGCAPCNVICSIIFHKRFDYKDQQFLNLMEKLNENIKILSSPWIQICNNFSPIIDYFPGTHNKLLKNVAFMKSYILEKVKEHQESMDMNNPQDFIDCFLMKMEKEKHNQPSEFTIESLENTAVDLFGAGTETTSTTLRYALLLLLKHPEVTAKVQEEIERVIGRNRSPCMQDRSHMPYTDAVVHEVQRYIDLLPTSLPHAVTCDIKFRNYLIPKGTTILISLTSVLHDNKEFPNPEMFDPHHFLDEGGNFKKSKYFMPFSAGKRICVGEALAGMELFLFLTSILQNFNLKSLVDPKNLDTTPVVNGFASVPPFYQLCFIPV", "experiment": "CYP2C9 inhibition in vitro", "type": "in vitro ADME"}, "[5]": {"tested_on": "hemoglobin", "experiment": "Phase III clinical trial in patients with hemodialysis anemia", "type": "in vivo, human", "procedure": "The incidence of adverse reactions when this drug was administered up to 24 weeks was 8.3% (2/24 cases)."}, "[6]": {"experiment": "[14C]-labeled Compound 1 650 mg metabolism and excretion", "type": "in vivo, human", "description": "Compound 1 is metabolized via UGT, mainly producing O-glucuronide conjugates.\nThe urinary excretion rate of this drug and acyl glucuronide is less than 1% of the total radioactivity."}, "[7]": {"experiment": "Phase I interaction study with statins and sulfasalazine: safety and tolerability", "type": "in vivo, human", "conditions": "taken alone or during treatment with rosuvastatin, pravastatin, atorvastatin, or simvastatin", "procedure": "The pharmacokinetic (pK) parameters and safety of said drugs administered alone and in combination with Compound 1 were characterized.\nSafety and Tolerability. Subject safety were evaluated throughout the study beginning on Day 1 (Baseline) until 30 days (±2 days) post last dose. The following safety assessments were performed: physical exam, 12-lead ECG (electrocardiogram), vital signs, clinical laboratory results, QuantiFERON®-TB Test, serology, and pregnancy. Adverse events (AE) were summarized."}, "[8]": {"experiment": "Phase I calcium acetate interaction study", "type": "in vivo, human", "conditions": "for AUC(0-t) / Cmax / Tmax / AUC(0-inf) / clearance / half-life / Vd: human, plasma, oral; for Tmax: median; for clearance: read-out: Clearance (ClB) (converted); for half-life: read-out: Elimination half-life (t1/2) (converted); for Vd: read-out: Volume of distribution (Vc)", "procedure": "A phase I, open-label, fixed-sequence study was conducted in healthy adult subjects to assess the effect of 1) a single oral dose of calcium acetate on the pharmacokinetics of a single oral dose of vadadustat.\nThe study included screening (28 days maximum), 9-day treatment period, and a 14-day follow-up period post last dose.\nPharmacokinetics. A predose PK blood sample was collected on Day 1. After each dose of vadadustat administered (Days 1, 3, 5, and 7), blood samples for PK analysis were collected at the following time points: predose and 0.5, 1, 1.5, 2, 3, 4, 6, 9, 12, 16, 24, and 48 hours after each dose of vadadustat. The 48-hour postdose sample was collected before vadadustat administration on Days 3, 5, and 7. The following parameters were calculated and analyzed: AUC0-∞, AUC0-last, Cmax, Tmax, Kel, CIB, Vc/F, and t1/2.\nSubjects were dosed approximately at the same designated time on each dosing day, where applicable. Study drugs were administered with approximately 8 ounces (240 mL) of water at room temperature in a seated position. Subjects were instructed to drink the full 8 ounces of water, and not to chew or break the tablets/gelcaps.\nThe 9-day treatment period was conducted as follows: • Day 1: vadadustat administered immediately after consuming breakfast. • Day 2: wash-out (no investigational product administration). • Day 3: vadadustat administered concomitantly with the requisite phosphate binder immediately after consuming breakfast. • Day 4: wash-out (no investigational product administration). • Day 5: vadadustat administered in fasted condition and the phosphate binder administered 1 hour later (breakfast must be served within 2 minutes after phosphate binder administration and consumed immediately after it is served). • Day 6: wash-out (no investigational product administration). • Day 7: phosphate binder administered immediately after consuming breakfast; vadadustat administered 2 hours after the phosphate binder was administered. • Day 8: wash-out (no investigational product administration). • Day 9: subjects discharged from the Clinical Research Unit (CRU) after the 48-hour postdose PK blood sample has been collected.\nA single oral dose of vadadustat 300 mg (2×150 mg tablets) was administered on Days 1, 3, 5, and 7. Phosphate binder that is calcium acetate (1334 mg, 2×667 mg gelcaps) was administered on Days 3, 5, and 7."}, "[9]": {"tested_on": "UGT1A1, UGT1A7, UGT1A8 and UGT1A9", "experiment": "UGT isoforms generating O-glucuronide in vitro", "type": "in vitro ADME, human"}, "[10]": {"experiment": "Plasma protein binding, equilibrium dialysis", "type": "in vitro ADME", "conditions": "human, in vitro, read-out: human plasma protein binding rate", "description": "The human plasma protein binding rate of this drug was higher than 99% (in vitro, equilibrium dialysis)."}, "[11]": {"conditions": "concomitant administration of phosphate binder, ANOVA"}, "[12]": {"conditions": "300 mg, Concomitant administration with calcium acetate 1334 mg after breakfast"}, "[13]": {"conditions": "300 mg, Vadadustat 300 mg alone, immediately after breakfast"}, "[14]": {"conditions": "300 mg, Vadadustat administered 1 hour prior to calcium acetate, fasting"}, "[15]": {"conditions": "300 mg, Vadadustat administered 2 hours after calcium acetate"}}, "note": "Like-named read-outs stand apart in the source and are kept apart here."}
{"smiles": "O=C(O)CNC(=O)c1ncc(-c2cccc(Cl)c2)cc1O", "note": "[Compound 1, {[5-(3-chlorophenyl)-3-hydroxypyridine-2-carbonyl]amino}acetic acid]", "values": [{"measurement": "inhibitory effect on UGT1A1", "setting": "[1]", "value": "inhibitory effect"}, {"measurement": "AUC(0-inf)", "setting": "[2]", "value": 263, "unit": "µg·h/mL"}, {"measurement": "AUC(0-t)", "setting": "[2]", "value": 253, "unit": "µg·h/mL"}, {"measurement": "Cmax", "setting": "[2]", "value": 45300, "unit": "ng/mL"}, {"measurement": "Tmax", "setting": "[2]", "value": 3, "unit": "h"}, {"measurement": "blood erythropoietin levels", "setting": "[3]", "value": "elevated"}, {"measurement": "inhibitory effect on CYP2C9", "setting": "[4]", "value": "inhibitory effect"}, {"measurement": "incidence of adverse reactions", "setting": "[5]; administered up to 24 weeks", "value": 8.3, "unit": "%"}, {"measurement": "Average hemoglobin level, After administration", "setting": "[5]; at 20 and 24 weeks, 150-600 mg once daily, adjusted average ± standard error", "value": "10.75 ± 0.19"}, {"measurement": "Average hemoglobin level, Before administration", "setting": "[5]; hemodialysis anemia patients, baseline, mean ± standard deviation", "value": "9.30 ± 0.67"}, {"measurement": "total radioactivity administered found in urine", "setting": "[6]; single 650 mg [14C]-labeled, by 72 hours after administration", "value": 58.9, "unit": "%"}, {"measurement": "share of the total radioactivity (AUC0-∞) in plasma", "setting": "[6]; single oral 650 mg [14C]-labeled Compound 1, healthy adult males", "value": 75, "unit": "%"}, {"measurement": "tolerability", "setting": "[7]", "value": "well tolerated"}, {"measurement": "reduction of AUC0-last and AUC0-∞", "setting": "[8]; [11]", "value": "about 55%"}, {"measurement": "reduction of Cmax", "setting": "[8]; [11]", "value": "about 51%"}, {"measurement": "AUC(0-t)", "setting": "[8]; [12]", "value": "77.4 ± 31.7", "unit": "µg·h/mL"}, {"measurement": "Cmax", "setting": "[8]; [12]", "value": "11300 ± 4390", "unit": "ng/mL"}, {"measurement": "Tmax", "setting": "[8]; [12]", "value": 4, "unit": "h"}, {"measurement": "AUC(0-inf)", "setting": "[8]; 300 mg, Concomitant administration with calcium acetate 1334 mg after breakfast, read-out: AUC0-∞", "value": "79.6 ± 32.7", "unit": "µg·h/mL"}, {"measurement": "clearance", "setting": "[8]; [12]", "value": 77.3, "unit": "mL/min"}, {"measurement": "half-life", "setting": "[8]; [12]", "value": "4.58 ± 0.9", "unit": "h"}, {"measurement": "Vd", "setting": "[8]; [12]", "value": "29.8 ± 14.6", "unit": "L"}, {"measurement": "AUC(0-t)", "setting": "[8]; [13]", "value": "163 ± 45.7", "unit": "µg·h/mL"}, {"measurement": "Cmax", "setting": "[8]; [13]", "value": "21900 ± 5610", "unit": "ng/mL"}, {"measurement": "Tmax", "setting": "[8]; [13]", "value": 3.93, "unit": "h"}, {"measurement": "AUC(0-inf)", "setting": "[8]; 300 mg, Vadadustat 300 mg alone, immediately after breakfast, read-out: AUC0-∞", "value": "166 ± 45.4", "unit": "µg·h/mL"}, {"measurement": "clearance", "setting": "[8]; [13]", "value": 31.8, "unit": "mL/min"}, {"measurement": "half-life", "setting": "[8]; [13]", "value": "4.75 ± 1.2", "unit": "h"}, {"measurement": "Vd", "setting": "[8]; [13]", "value": "12.6 ± 2.41", "unit": "L"}, {"measurement": "AUC(0-t)", "setting": "[8]; [14]", "value": "130 ± 36.2", "unit": "µg·h/mL"}, {"measurement": "Cmax", "setting": "[8]; [14]", "value": "25000 ± 9560", "unit": "ng/mL"}, {"measurement": "Tmax", "setting": "[8]; [14]", "value": 1.44, "unit": "h"}, {"measurement": "AUC(0-inf)", "setting": "[8]; 300 mg, Vadadustat administered 1 hour prior to calcium acetate, fasting, read-out: AUC0-∞", "value": "133 ± 36.8", "unit": "µg·h/mL"}, {"measurement": "clearance", "setting": "[8]; [14]", "value": 40.3, "unit": "mL/min"}, {"measurement": "half-life", "setting": "[8]; [14]", "value": "4.47 ± 0.75", "unit": "h"}, {"measurement": "Vd", "setting": "[8]; [14]", "value": "15.3 ± 3.25", "unit": "L"}, {"measurement": "AUC(0-t)", "setting": "[8]; [15]", "value": "132 ± 44.3", "unit": "µg·h/mL"}, {"measurement": "Cmax", "setting": "[8]; [15]", "value": "24600 ± 7130", "unit": "ng/mL"}, {"measurement": "Tmax", "setting": "[8]; [15]", "value": 2.97, "unit": "h"}, {"measurement": "AUC(0-inf)", "setting": "[8]; 300 mg, Vadadustat administered 2 hours after calcium acetate, read-out: AUC0-∞", "value": "135 ± 44.3", "unit": "µg·h/mL"}, {"measurement": "clearance", "setting": "[8]; [15]", "value": 42.2, "unit": "mL/min"}, {"measurement": "half-life", "setting": "[8]; [15]", "value": "4.84 ± 1.03", "unit": "h"}, {"measurement": "Vd", "setting": "[8]; [15]", "value": "17.8 ± 9.99", "unit": "L"}, {"measurement": "AUC(0-inf)", "setting": "[8]; vadadustat administered concurrently with calcium acetate, read-out: geometric LS mean AUC0-∞", "value": 72.4, "unit": "µg·h/mL"}, {"measurement": "changes in vadadustat exposure", "setting": "[8]; vadadustat administered 1 hour prior to calcium acetate", "value": "within the prespecified no-effect boundaries of 80% to 125%"}, {"measurement": "changes in vadadustat exposure", "setting": "[8]; vadadustat administered 2 hours after calcium acetate", "value": "within the prespecified no-effect boundaries of 80% to 125%"}, {"measurement": "UGT isoforms involved in the generation of O-glucuronide", "setting": "[9]", "value": "UGT1A1, UGT1A7, UGT1A8 and UGT1A9"}, {"measurement": "fraction unbound", "setting": "[10]", "value": "< 0.01"}]}
